From paper PMC5430962, “Retro-inverso Urokinase Receptor Antagonists for the Treatment of Metastatic Sarcomas” (Scientific Reports, 2017)
Where a SMILES comes first, the peptide text is derived from it. Where no end group is shown, it is not given here. [ ]: non-standard residue; d: D form. The star is where a group is joined. Hydrocinnamoyl = O=C(CCc1ccccc1)*; PhAc = O=C(Cc1ccccc1)*; Aib = CC(C)(N)C(=O)O

Key:
sarcoma cell = settings: cited from earlier work
Source text: (§1) Following on this observation, we developed a series of linear peptides that inhibit the uPAR/FPR1 interaction and reduce to basal levels directional cell migration, invasion and angiogenesis[37]–[40]. While providing proof-of-principle for the strategy, none of these peptides represents an ideal lead molecule: many of these peptides are unstable to enzymatic digestion in human serum, which limits their half-life in vivo, whereas ...

[1] = cited from earlier work
Source text: as §1

HT1080 cells [2] = assay: HT1080 cell migration toward 10% FBS in Boyden chambers; assay type: cell-based, human; settings: 10 nM peptide plus 10% FBS, 4 hr, means of three independent experiments in triplicate
Protocol: (§2) Cell migration in Boyden chambers was carried out for 4 hr at 37 °C in humidified air with 5% CO2, as described. Briefly, cell suspension (1 × 10^5 viable cells/mL serum free medium) was seeded in each upper chamber. Lower chambers were filled with DMEM alone, DMEM containing RI peptides, 10 nM fMLF, or 10% FBS with/without RI peptides. The two compartments were separated by 8 μm pore size polycarbonate filters (Neuroprobe) coated with 2.5 µg/mL vitronectin (Corning). For the invasion assays, 8 μm pore size filters were coated with 50 μg/filter matrigel (BD Biosciences) as previously described[40] and cells (3 × 10^4 viable cells/well) were allowed to invade matrigel for 6 hr at 37 °C, 5% CO2. In all cases, at the end of the assay, cells on the lower filter surface were fixed with ethanol, stained with haematoxylin and 10 random fields/filter were counted at 200× magnification. Each experiment was performed three times in triplicate.

HT1080 cells [3] = assay: HT1080 matrigel invasion toward 10% FBS in Boyden chambers; assay type: cell-based, human; settings: 10 nM peptide plus 10% FBS, 6 hr, means of three independent experiments in triplicate
Protocol: as §2

GFP-tagged Sarc cells = assay: Growth and spread of subcutaneous GFP-tagged Sarc tumors in nude mice; assay type: in vivo, Foxn1nu/nu female nude mice; settings: 6 mg/Kg i.p. every day for 12 days, five mice per group
Protocol: To evaluate the effect of RI-3 on tumor growth and vascularization, Sarc cells were injected, as a single-cell suspension (1 × 10^6 cells in 100 µl of sterile PBS, 97% viability), subcutaneously in the flanks of sixteen six-eight weeks old, Foxn1nu/nu female nude mice (Harlan). Animals were randomized into two 8-mice groups with the treatment group receiving 6 mg/kg RI-3 by intra-peritoneal injection every 24 hr, and the control group receiving an equivalent injected volume of vehicle (PBS) only. Time-dependent average weight was monitored every two days. The length and the width of tumors were measured at different time points with a calliper and volumes were calculated using the formula: ½ × (width)[2] × length (mm). After 10 days, blood samples (at least 500 µL/mouse) from the retro-orbital venous plexus of mice anesthetized with 1% isoflurane were collected using a heparinized capillary tube and processed for determination of the Circulating Tumor Cells (CTCs). Then, the animals were sacrificed, the excised tumors were fixed in buffered formalin and processed for paraffin sectioning. Tumor vascularization was assessed by counting vascular channels harbouring red blood cells on CD31 immuno-stained sections in 5 randomly chosen fields per section, in at least two sections per tumor at x 200 as described. Two additional experiments were carried out with the same experimental design by injecting GFP-tagged Sarc cells (1 × 10^6 cells/mouse) subcutaneously in the flanks of twenty-five six-eight weeks old, Foxn1nu/nu female nude mice (Harlan). Animals were treated with 6 mg/kg RI-3, 6 mg/kg RERF or vehicle by intra-peritoneal injection every 24 hr for 10 or 12 days. Tumor growth and the appearance of positive tumor lesions near tumors and in lungs were monitored as brightly visualized by GFP fluorescence with a MacroFluo fluorescence stereomicroscope (Leica). We searched for the presence of GFP-positive nodules on the entire surface of freshly isolated lungs. Lungs were also sliced at approximately 3-mm thickness to examine the parenchyma in depth, and the positive nodules were acquired at higher magnification.

FPR1 [4] = target: T1, FPR1 (Homo sapiens, UniProt P21462); assay: Ligand binding assay: FITC-fMLF binding to RBL-2H3/ETFR cells; settings: 100 nM unlabeled peptide 60 min at 4 °C, then 10 nM FITC-fMLF 60 min at 4 °C; fluorescence plate reader
T1 construct: expressed in transfected cells; host or cells: rat basophilic leukaemia RBL-2H3/ETFR cells (gift of F. Blasi)
T1 sequence (P21462 1-350): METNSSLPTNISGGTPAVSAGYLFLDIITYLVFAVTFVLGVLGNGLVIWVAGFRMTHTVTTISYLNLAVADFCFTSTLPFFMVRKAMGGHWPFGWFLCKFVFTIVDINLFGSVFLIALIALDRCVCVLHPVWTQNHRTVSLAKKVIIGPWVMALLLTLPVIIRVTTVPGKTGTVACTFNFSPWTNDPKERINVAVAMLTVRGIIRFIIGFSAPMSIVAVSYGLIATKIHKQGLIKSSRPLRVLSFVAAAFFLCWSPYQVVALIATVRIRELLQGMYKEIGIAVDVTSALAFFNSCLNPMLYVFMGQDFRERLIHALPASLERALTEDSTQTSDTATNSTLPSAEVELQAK
Protocol: RBL-2H3 cells, RBL-2H3/ETFR cells stably expressing FPR1 (1.5 × 10^6 cells/sample) were pre-incubated with diluents or the indicated unlabeled peptides for 60 min at 4 °C, extensively rinsed with phosphate buffer saline (PBS), exposed to 10 nM FITC-fMLF (Molecular Probes) in PBS for additional 60 min at 4 °C and again rinsed with PBS. Cell-associated fluorescence was quantitated with the fluorescence plate reader Victor 3 (Perkin Elmer) using 485 nm excitation and 535 nm emission filters. The experiments were performed three times in triplicate.

HT1080 cells [5] = assay: HT1080 cell migration toward peptide as chemoattractant, xCELLigence RTCA; assay type: cell-based, human; settings: migration toward 10 nM peptide, monitored 18 hr, quadruplicate
Protocol: The kinetics of cell migration was monitored in real time using the xCELLigence Real Time Cell Analysis (RTCA) technology (Acea Bioscience) as described, [80]. For these experiments we used CIM-plates which are provided with interdigitated gold microelectrodes on the bottom side of a filter membrane interposed between a lower and an upper compartment. The lower chamber was filled with serum-free medium or growth medium with/without RI peptides. Cells (2 × 10^4 cells/well) were seeded on filters in serum-free medium. Cell migration was monitored for 18 hr, and each experiment was performed at least twice in quadruplicate.

FPR1 [6] = target: T1, FPR1; assay: Agonist-dependent FPR1 internalization, fluorescence microscopy in RBL-2H3/ETFR cells; assay type: cell-based; settings: 100 nM peptide 30 min at 37 °C, then 10 nM FITC-fMLF 30 min at 37 °C; confocal microscopy
Protocol: Cells grown on glass slides to semi-confluence were exposed to diluents or the indicated unlabeled peptides for 30 min at 37 °C, then to 10 nM FITC-fMLF in PBS for additional 30 min at 37 °C and extensively rinsed with PBS. To visualize the cytoskeleton, the cells were fixed with 2.5% formaldehyde, permeabilized with 0.1% Triton X-100 for 10 min at 4 °C, and incubated with 0.1 µg/mL rhodamine-conjugated phalloidin (Sigma-Aldrich) for 40 min. In all cases, coverslips were mounted using 20% (w/v) Mowiol, visualized with a Zeiss 510META-LSM microscope (Carl Zeiss), and z-series were collected at 0.20 µm intervals.

monocyte = settings: read-out: IC50 of inhibition of fMLF-induced monocyte locomotion; cited from earlier work
Source text: The uPAR domains DI-DIII are connected by short linker regions. DI-DIII pack together into a concave structure that shifts to an active conformation upon binding to uPA[21], [22]. The linker between DI-DII is more flexible than that between the DII‒DIII domains[23]–[25], and includes the protease-sensitive crucial signaling region, uPAR84–95. In the form of a synthetic peptide, the minimal 88–92 sequence (Ser^88-Arg-Ser-Arg-Tyr^92, SRSRY) retains chemotactic activity and triggers directional cell migration and angiogenesis in vitro and in vivo [15]–[17], [26], [27]. Mechanistically, these ...

Compound	reduction of FBS-directed cell migration (HT1080 cells [2])	reduction of the extent of cell invasion (matrigel) (HT1080 cells [3])	other results
Ac-L-Arg-Aib-L-Arg-D-Ca(Me)Phe-NH2 [UPARANT]	–	–	inhibition of sarcoma cell invasion in a mouse model of lung colonization (sarcoma cell): does not inhibit; stability in blood and resistance to enzymatic proteolysis [1]: stable in blood and displays prolonged resistance to enzymatic proteolysis
CC(=O)N[C@H](Cc1ccc(O)cc1)C(=O)N[C@H](CCCNC(=N)N)C(=O)N[C@H](CCC(=O)O)C(=O)N[C@H](CCCNC(=N)N)C(N)=O [RI-1, Ac-(D)-Tyr-(D)-Arg-(D)-Glu-(D)-Arg-NH2] (Ac-[dY][dR][dE][dR]-NH2)	33%	27%	–
CC(=O)N[C@H](Cc1ccc(O)cc1)C(=O)N[C@H](CCCNC(=N)N)C(=O)N[C@H](CO)C(=O)N[C@H](CCCNC(=N)N)C(N)=O [RI-2, Ac-(D)-Tyr-(D)-Arg-(D)-Ser-(D)-Arg-NH2] (Ac-[dY][dR][dS][dR]-NH2)	29%	23%	–
CC(C)(NC(=O)[C@@H](CCCNC(=N)N)NC(=O)Cc1ccccc1)C(=O)N[C@H](CCCNC(=N)N)C(N)=O [RI-4, Phenyl-Acetyl-D-Arg-Aib-D-Arg-NH2] (PhAc-[dR]-[Aib]-[dR]-NH2)	37%	23%	–
CC(=O)N[C@@H](CCCNC(=N)N)C(=O)N[C@@H](CCC(=O)O)C(=O)N[C@@H](CCCNC(=N)N)C(=O)N[C@@H](Cc1ccccc1)C(N)=O [RERF, reference compound] (Ac-RERF-NH2)	–	–	changes in body weight (GFP-tagged Sarc cells): did not cause changes in body weight
N-formyl-Met-Leu-Phe [fMLF, N-formyl-methionyl-leucyl-phenylalanine, reference compound]	–	–	effect on binding of FITC-fMLF to RBL-2H3/ETFR cells (FPR1 [4]): strongly reduced; ability to trigger cell migration (HT1080 cells [5]): elicited a considerable cell migration; effect on agonist-dependent FPR1 internalization (FPR1 [6]): prevented
cyclized SRSRY: cyclized form of the uPAR 88–92 sequence Ser-Arg-Ser-Arg-Tyr (also: cyclized, mode not given here)	–	–	IC50 (monocyte): 0.01 nM
CC(C)(NC(=O)[C@@H](CCCNC(=N)N)NC(=O)CCc1ccccc1)C(=O)N[C@H](CCCNC(=N)N)C(N)=O [RI-5, 3-Phenyl-Propionyl-D-Arg-Aib-D-Arg-NH2] (Hydrocinnamoyl-[dR]-[Aib]-[dR]-NH2)	28%	9%	–
